Among the test systems are CAKI-1; RXF 393; MCF7; OVCAR-4; T47D; LOX IMVI; MDA-MB-435; CCRF-CEM; BT-549; SR; NCI-H23; HOP-62; IGROV-1; SF-268; SK-MEL-5; SK-MEL-2; HL-60; HOP-92; DU-145; HCC 2998.
Assay in all cases: inhibition of tumour cell growth, NCI panel, 48 h

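Each compound was tested at five concentrations against cells in 96-well plates for 48 hours. Abbreviation: GI50, concentration required for 50% inhibition of growth.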 Calls of active or inactive are those of the source. Cut-off read from the data, not from the text of the source: active = GI50 up to about 1.1 µM and inactive = higher. Where only a bound is given, the exact number is not on record here.

Take `C/C(=N\c1c2ccccc2nc2ccccc12)N(C)C`: the GI50 was 24.3 µM (inactive) in the experiment with CAKI-1; 23.8 µM (inactive) in the experiment with RXF 393; 25.8 µM (inactive) in the experiment on MCF7; 19 µM (inactive) with OVCAR-4; 20.5 µM (inactive) in the experiment on T47D; 11.6 µM (inactive) with LOX IMVI. Moreover, the GI50 in the experiment on MDA-MB-435 is 22.5 µM (inactive); in the experiment with CCRF-CEM, 8.87 µM (inactive); in the experiment with BT-549, 25.8 µM (inactive); in the experiment with SR, 3.47 µM (inactive); with NCI-H23, 15.2 µM (inactive); in the experiment with HOP-62 it was 16.5 µM (inactive). For the same compound, the GI50 with IGROV-1 is 23.9 µM (inactive); with SF-268 it was 27.4 µM (inactive); in the experiment on SK-MEL-5 it was 14.6 µM (inactive); in the experiment on SK-MEL-2, 20 µM (inactive); in the experiment with HL-60, 3.28 µM (inactive); with HOP-92, 10.6 µM (inactive). Further, the GI50 in the experiment with DU-145 was 29 µM (inactive).
With `O=[N+]([O-])c1ccc(C2=NOC(c3ccccc3)N2C23CC4CC(CC(C4)C2)C3)cc1` (stereo not given), the GI50 in the experiment with HCC 2998 was 39 µM (inactive); with CAKI-1, 1.36 µM (inactive); in the experiment on MCF7 it was 24.8 µM (inactive); in the experiment with OVCAR-4, 39.1 µM (inactive); with T47D it was 25.7 µM (inactive); in the experiment with LOX IMVI, 15.9 µM (inactive). Also, the GI50 in the experiment with MDA-MB-435 was 21.8 µM (inactive); with CCRF-CEM it was 21.7 µM (inactive); in the experiment on BT-549, 19.8 µM (inactive); with SR it was > 10 µM (inactive); in the experiment on NCI-H23, 41 µM (inactive); in the experiment with HOP-62, 26.5 µM (inactive). Also, the GI50 was 24.8 µM (inactive) in the experiment with IGROV-1; 59.6 µM (inactive) with SF-268; 22.2 µM (inactive) with SK-MEL-5; 16.4 µM (inactive) with SK-MEL-2; 26.6 µM (inactive) in the experiment with HL-60; 40 µM (inactive) with DU-145.
Regarding `Cc1cc(C)n(CN(CCCCO)Cn2nc(C)cc2C)n1`, the GI50 with CAKI-1 is 34.4 µM (inactive); in the experiment on RXF 393 it was 18.8 µM (inactive); in the experiment with MCF7 it was 26.8 µM (inactive); in the experiment on OVCAR-4, 24.7 µM (inactive); in the experiment with T47D, 25.6 µM (inactive); in the experiment with LOX IMVI, 22.8 µM (inactive). For the same compound, the GI50 in the experiment with MDA-MB-435 is 19.4 µM (inactive); in the experiment on CCRF-CEM, 0.178 µM (active); with BT-549, 23 µM (inactive); in the experiment on SR it was 4.82 µM (inactive); in the experiment on NCI-H23, 24.3 µM (inactive); with HOP-62 it was 21.8 µM (inactive). Further, the GI50 in the experiment on IGROV-1 was 26.9 µM (inactive); in the experiment with SF-268 it was 25.6 µM (inactive); in the experiment with SK-MEL-5 it was 34.1 µM (inactive); in the experiment on SK-MEL-2 it was 22.2 µM (inactive); with HL-60, 23.3 µM (inactive); in the experiment with HOP-92 it was 22 µM (inactive). Also, the GI50 with DU-145 is 24.8 µM (inactive).
For `CN(C)Cc1ccc(-c2cc3onc(-c4ccccc4)c3c(=O)n2C)cc1`, the GI50 with CAKI-1 is 85.3 µM (inactive); in the experiment with MCF7, 41.2 µM (inactive); in the experiment with OVCAR-4 it was 84.9 µM (inactive); in the experiment with T47D, 20 µM (inactive); with LOX IMVI it was 17.9 µM (inactive); with MDA-MB-435 it was 19.2 µM (inactive). Besides, the GI50 in the experiment on BT-549 was 38.5 µM (inactive); with SR it was 11.7 µM (inactive); in the experiment on NCI-H23, 29.6 µM (inactive); with HOP-62, 20.7 µM (inactive); with IGROV-1, 36 µM (inactive); in the experiment with SF-268 it was 31.2 µM (inactive). The GI50 in the experiment with SK-MEL-5 is 17.9 µM (inactive); in the experiment with SK-MEL-2 it was 27.5 µM (inactive); with HL-60, 0.711 µM (active); in the experiment on HOP-92, 7.87 µM (inactive); in the experiment on DU-145 it was 28.8 µM (inactive).
With `O=C(NNC(=O)c1csc(NC(=S)NC2CCCCC2)n1)c1ccccc1`, the GI50 was 13.9 µM (inactive) with HCC 2998; 18.6 µM (inactive) in the experiment with CAKI-1; 2.06 µM (inactive) with MCF7; 3.34 µM (inactive) in the experiment with OVCAR-4; 3.37 µM (inactive) in the experiment on T47D; 10.3 µM (inactive) in the experiment with LOX IMVI. Also, the GI50 is 15.6 µM (inactive) in the experiment with MDA-MB-435; 3.61 µM (inactive) in the experiment with CCRF-CEM; 17.3 µM (inactive) with BT-549; 2.26 µM (inactive) in the experiment on SR; 16.7 µM (inactive) with NCI-H23; 14 µM (inactive) in the experiment on HOP-62. The GI50 in the experiment on IGROV-1 is 1.96 µM (inactive); with SF-268, 5.66 µM (inactive); in the experiment on SK-MEL-5 it was 6.71 µM (inactive); with SK-MEL-2, 22.4 µM (inactive); with DU-145, 18.7 µM (inactive).
As to `CCN1C(=O)C(=C/C=C/C=C2/N(C)c3ccccc3C2(C)C)C(=O)N(CC)C1=S`, the GI50 with CAKI-1 was > 100 µM (inactive); in the experiment on RXF 393, 39.6 µM (inactive); in the experiment on MCF7 it was > 100 µM (inactive); in the experiment on OVCAR-4 it was 33 µM (inactive); with T47D, 82.4 µM (inactive); in the experiment on LOX IMVI it was 21.5 µM (inactive). Also, the GI50 is > 100 µM (inactive) with MDA-MB-435; > 100 µM (inactive) with CCRF-CEM; 13.6 µM (inactive) with BT-549; > 10 µM (inactive) in the experiment on SR; > 100 µM (inactive) in the experiment on NCI-H23; 32.5 µM (inactive) in the experiment on HOP-62. The GI50 in the experiment with IGROV-1 was > 100 µM (inactive); in the experiment on SF-268, 99.3 µM (inactive); in the experiment on SK-MEL-5, > 10 µM (inactive); in the experiment on SK-MEL-2 it was > 100 µM (inactive); in the experiment on HL-60, > 100 µM (inactive); with HOP-92 it was > 100 µM (inactive). Moreover, the GI50 with DU-145 is 64.7 µM (inactive).
With `NC(CC(=O)Nc1cc(C(F)(F)F)ccc1Cl)=NO`, the GI50 in the experiment on CAKI-1, with RXF 393, in the experiment on MCF7, in the experiment on OVCAR-4, in the experiment on T47D and in the experiment on LOX IMVI was > 100 µM (inactive) throughout. Further, the GI50 with MDA-MB-435, in the experiment on BT-549, with SR, in the experiment with NCI-H23, with HOP-62 and in the experiment with IGROV-1 was > 100 µM (inactive) throughout. Further, the GI50 in the experiment on SF-268, in the experiment on SK-MEL-5, with SK-MEL-2, in the experiment with HL-60, with HOP-92 and with DU-145 was > 100 µM (inactive) each time.
As for `O=C(/C=C/c1ccc(F)c(F)c1)OCCc1ccccc1`, the GI50 in the experiment on HCC 2998 was > 100 µM (inactive); in the experiment on CAKI-1 it was 67.1 µM (inactive); in the experiment on MCF7 it was 81.8 µM (inactive); in the experiment with OVCAR-4, 91.8 µM (inactive); with T47D, 72.4 µM (inactive); in the experiment on LOX IMVI, 89.9 µM (inactive). Also, the GI50 in the experiment on MDA-MB-435 was > 100 µM (inactive); with CCRF-CEM, 29.8 µM (inactive); in the experiment with BT-549, > 100 µM (inactive); in the experiment on SR it was 90.6 µM (inactive); in the experiment with NCI-H23, 72.9 µM (inactive); in the experiment on HOP-62, > 100 µM (inactive). Besides, the GI50 in the experiment with IGROV-1 was > 100 µM (inactive); in the experiment on SF-268 it was > 100 µM (inactive); in the experiment on SK-MEL-5, 38.5 µM (inactive); in the experiment with SK-MEL-2, > 100 µM (inactive); with HL-60 it was > 100 µM (inactive); with DU-145, > 100 µM (inactive).

For the origin of these results see ChEMBL document CHEMBL1201862, “PubChem BioAssay data set” (2004).
